Read-outs that look alike come from different tables or passages of the source.
Key:
H2030 = assay: Non Small Cell Lung Cancer Proliferation Assay (Alamar Blue); type: cell-based, human; settings: Homo sapiens, NCI-H2030, dose response 10 μM to 5 nM
Experimental: (§1) These cells have a doubling time of 1-2 days. All cell types are adherent and grow in colonies. The cells should be kept at a density between 50,000 cells/mL-500,000 cells/mL to provide for optimum growth and adequate nutrition. The cell line should be maintained at 37° C. in a humidified atmosphere with 5% CO2 in a sterile cell culture incubator.
(§2) To perform the assay, the Non Small Cell Lung Cancer lines are diluted in media and plated into 384 well microplates at a final density of 250 cells in 45 μL.
(§3) High Controls for this assay are made by treating Non Small Cell Lung Cancer cells with 5 ul of 10% DMSO. [Final concentration in this assay is 1% DMSO].
(§4) Important Note: All compounds for testing in this assay should be done at the final concentration of 1% DMSO.
(§5) After addition, the cells are placed in cell culture incubator at 37° C. for 48 hours for complete treatment.
(§6) After drug treatment, cytotoxicity is measured by Alamar Blue reduction.
(§7) The cells are incubated for 48 hours at 37° C. to complete the Alamar Blue reduction.
(§8) The final step in the assay is to measure the amount of Alamar Blue reduction. […] The Alamar Blue fluorescence is measured at an excitation of 530 nm and emission of 590 nm.
(§9) For the NSCLC project, the cell based assay was screened against a small molecule library of approximately 200,000 compounds. The compound library is stored in our automated robotic freezer (Biophile) at −20° C. in 100% DMSO. Compound freeze and thaw cycles are kept to a minimum. […] This assay was performed on a fully automated linear track robotic platform (CRS F3 Robot System, Thermo Electron Corp., Ontario, Canada) utilizing several integrated peripherals for plate handling, liquid dispensing, and readout detection. […] The microplates are then placed at 37° C. for 48 hours to complete treatment of cells with compounds. Next, 5 ul of alamar blue was added using a liquid dispenser (FlexDrop Precision Dispenser, Perkin Elmer, Mass., USA) and incubated for 48 hours at 37° C. The alamar blue prompt fluorescence was measured on Victor V (Victor^3 V, Perkin Elmer, Mass., USA) and output data files were loaded into ORIS (Oncology Research Informatics System, MSKCC, NY, USA), a screening data acquisition and analysis platform.

H3255 = assay: as above; type: cell-based, human; settings: Homo sapiens, NCI-H3255, dose response 10 μM to 5 nM
Experimental: as §1, §2, §3, §4, §5, §6, §7, §8, §9

in vitro = settings: human
Experimental: NHBE (normal human bronchiolar epithelial cells) are primary cells obtained from donor lungs and commercially available from Cambrex. The HPLID (human peripheral lung epithelial) cell line has been immortalized with the SV40 large T-antigen. WI-38: human lung fibroblast cell line. HPLID, NHBE and WI-38 cells will serve as controls in the chemical screens. WT: wildtype; WT*: over-expressed wildtype.
Compounds were tested in dose response studies from 10 μM to 5 nM against several non small cell lung cancer lines: H358, H827, H1118, H1650, H1734, H1975, H2030, and H3255, and were also studied in a 72 hour cytotoxicity assay against the NHBE and WI-38 cell lines.

[1] = tested on: 15 non small cell lung cancer lines representing various EGFR and KRAS mutations; assay: Dose response studies against 15 NSCLC lines (alamar blue); type: cell-based, human; settings: 12 point doubling dilution 10 uM to 5 nM, alamar blue
Experimental: Dose response studies against 34 compounds from the pyridazinone and phenylfuran-carboxamide class were conducted. […] In addition, Tarceva was included in these dose response studies.
The dose response studies were done with the following standard procedure. First, the cells were counted and dispensed at 250 cells/well into 384-well microplates with compound. The cells were incubated for 48 hours at 37 C to complete treatment, and then alamar blue was added for an additional 48 hours. Finally, alamar blue reduction was measured and the data was loaded into ORIS, our data screening acquisition platform.

H358 = assay: Non Small Cell Lung Cancer Proliferation Assay (Alamar Blue), dose response; settings: Homo sapiens, NCI-H358, read-out: H358 Dose Response (uM)
Experimental: (§10) This assay was performed on a fully automated linear track robotic platform (CRS F3 Robot System, Thermo Electron Corp., Ontario, Canada) utilizing several integrated peripherals for plate handling, liquid dispensing, and readout detection. […] The microplates are then placed at 37° C. for 48 hours to complete treatment of cells with compounds. Next, 5 ul of alamar blue was added using a liquid dispenser (FlexDrop Precision Dispenser, Perkin Elmer, Mass., USA) and incubated for 48 hours at 37° C. The alamar blue prompt fluorescence was measured on Victor V (Victor^3 V, Perkin Elmer, Mass., USA) and output data files were loaded into ORIS (Oncology Research Informatics System, MSKCC, NY, USA), a screening data acquisition and analysis platform. […]

H827 = assay: as above; settings: Homo sapiens, read-out: H827 Dose Response (uM)
Experimental: as §10

H1118 = assay: as above; settings: Homo sapiens, read-out: H1118 Dose Response (uM)
Experimental: as §10

H1734 = assay: as above; settings: Homo sapiens, NCI-H1734, read-out: H1734 Dose Response (uM)
Experimental: as §10

IC50 (H2030): 1.08 µM | IC50 (H3255): 2.95 µM | IC50 at 72 h (in vitro): 7.52 µM | IC50 ([1]; Homo sapiens, NCI-H358, H358 (EGFR WT, KRAS G12C), read-out: IC50 H358): 1.7 µM | IC50 ([1]; Homo sapiens, NCI-H460, H460 (EGFR WT, KRAS Q61H), read-out: IC50 H460): 3.68 µM | IC50 ([1]; Homo sapiens, NCI-H820, H820 (EGFR T790M/DelE746-A750, KRAS WT), read-out: IC50 H820): 0.47 µM | IC50 ([1]; Homo sapiens, NCI-H1650, H1650 (EGFR DelE746-A750, KRAS WT), read-out: IC50 H1650): 1.67 µM | IC50 ([1]; Homo sapiens, NCI-H1734, H1734 (EGFR WT, KRAS G13C), read-out: IC50 H1734): 3.2 µM | IC50 ([1]; Homo sapiens, NCI-H1975, H1975 (KRAS WT), read-out: IC50 H1975): 0.76 µM | IC50 ([1]; Homo sapiens, NCI-H2030, H2030 (EGFR WT, KRAS G12C), read-out: IC50 H2030): 1.38 µM | IC50 ([1]; Homo sapiens, NCI-H2122, H2122 (EGFR WT, KRAS G12C), read-out: IC50 H2122): 2.16 µM | IC50 ([1]; Homo sapiens, NCI-H2444, H2444 (EGFR WT, KRAS G12V), read-out: IC50 H2444): 1.05 µM | IC50 ([1]; Homo sapiens, NCI-H3255, H3255 (EGFR L858R, KRAS WT), read-out: IC50 H3255): 3.16 µM | IC50 ([1]; Homo sapiens, A549 (EGFR WT, KRAS G12S), read-out: IC50 A549): 2.13 µM | IC50 ([1]; Homo sapiens, H23 (EGFR WT, KRAS G12C), read-out: IC50 H23): 0.31 µM | IC50 ([1]; Homo sapiens, H1118 (EGFR L858R, KRAS WT), read-out: IC50 H1118): 0.83 µM | IC50 ([1]; Homo sapiens, PC9 (EGFR DclE746-A750, KRAS WT), read-out: IC50 PC9): 2 µM | IC50 (H358): 0.74 µM | IC50 (H827): 0.71 µM | IC50 (H1118): 0.49 µM | IC50 (H1734): 3.2 µM
SMILES: Cc1ccccc1-n1ncc(Cl)c(Cl)c1=O [compound 257017]
IC50 at 72 h (in vitro; NHBE CytoTox (uM)): 5.17 µM | IC50 ([1]; HPL1D (SV40-immortalized human lung epithelian cells, EGFR WT, KRAS WT), read-out: IC50 HPL1D): 1.14 µM
